Measured values taken from ChEMBL document CHEMBL1151789, “Molecular modeling studies toward the structural optimization of new cyclopeptide-based HDAC inhibitors modeled on the natural product FR235222” (Bioorg Med Chem, 2008).

Assay: Inhibition of HDLP

SMILES	Ki	IC50
C[C@@H](O)C(=O)CCCCC[C@@H]1NC(=O)[C@@H]2CCCN2C(=O)[C@H](Cc2ccccc2)NC(=O)[C@H](Cc2ccccc2)NC1=O	82.1 nM	
C[C@@H](O)C(=O)CCCCC[C@@H]1NC(=O)[C@@H]2CCCN2C(=O)[C@H](Cc2ccccc2)NC(=O)[C@H](Cc2c[nH]c3ccccc23)NC1=O	7.77 nM	
C[C@H](O)C(=O)CCCCC[C@@H]1NC(=O)[C@H]2CCCN2C(=O)[C@H](Cc2ccccc2)NC(=O)[C@H](Cc2cnc[nH]2)NC1=O	34.2 nM	350000 nM
C[C@@H](O)C(=O)CCCCC[C@@H]1NC(=O)[C@H]2CCCN2C(=O)[C@H](Cc2ccccc2)NC(=O)[C@H](Cc2ccccc2)NC1=O	36.9 nM	280 nM
C[C@@H](O)C(=O)CCCCC[C@@H]1NC(=O)[C@H]2CCCN2C(=O)[C@H](Cc2ccccc2)NC(=O)[C@H](Cc2c[nH]c3ccccc23)NC1=O	0.987 nM	20 nM
C[C@H](O)C(=O)CCCCC[C@@H]1NC(=O)[C@@H]2CCCN2C(=O)[C@H](Cc2ccccc2)NC(=O)[C@H](Cc2ccc(Cl)cc2)NC1=O	23.4 nM	
C[C@H](O)C(=O)CCCCC[C@@H]1NC(=O)[C@H]2CCCN2C(=O)[C@H](Cc2ccccc2)NC(=O)[C@H](Cc2ccc(Cl)cc2)NC1=O	87.1 nM	
CC[C@]1(C)NC(=O)[C@H](CCCCCC(=O)[C@@H](C)O)NC(=O)[C@H]2CC(C)(C)CN2C(=O)[C@H](Cc2ccccc2)NC1=O	60.4 nM	90 nM
CC[C@]1(C)NC(=O)[C@H](CCCCCC(=O)[C@@H](C)O)NC(=O)[C@H]2CCCN2C(=O)[C@H](Cc2ccccc2)NC1=O	18.6 nM	50 nM
C[C@H](O)C(=O)CCCCC[C@@H]1NC(=O)[C@H]2CCCN2C(=O)[C@H](Cc2ccccc2)NC(=O)C(C)(C)NC1=O	194 nM	330 nM
C[C@@H](O)C(=O)CCCCC[C@@H]1NC(=O)[C@H]2CCCN2C(=O)[C@H](Cc2ccccc2)NC(=O)C(C)(C)NC1=O	16.4 nM	30 nM
CC[C@]1(C)NC(=O)[C@H](CCCCCC(=O)[C@@H](C)O)NC(=O)[C@@H]2CC(C)(C)CN2C(=O)[C@H](Cc2ccccc2)NC1=O	45.8 nM	
C[C@H](O)C(=O)CCCCC[C@@H]1NC(=O)[C@@H]2CCCN2C(=O)[C@H](Cc2ccccc2)NC(=O)C2(CCCCC2)NC1=O	6.79 nM	
CC[C@@H]1NC(=O)[C@H](CCCCCC(=O)[C@H](C)O)NC(=O)[C@H]2CCCN2C(=O)[C@H](Cc2ccccc2)NC1=O	110 nM	1000 nM
C[C@@H](O)C(=O)CCCCC[C@@H]1NC(=O)[C@@H]2CCCN2C(=O)[C@H](Cc2ccccc2)NC(=O)C(C)(C)NC1=O	10.6 nM	
CC[C@@H]1NC(=O)[C@H](CCCCCC(=O)[C@H](C)O)NC(=O)[C@@H]2CCCN2C(=O)[C@H](Cc2ccccc2)NC1=O	53.6 nM	
CC[C@]1(C)NC(=O)[C@H](CCCCCC(=O)[C@@H](C)O)NC(=O)[C@@H]2CCCN2C(=O)[C@H](Cc2ccccc2)NC1=O	12.7 nM	
C[C@H](O)C(=O)CCCCC[C@@H]1NC(=O)[C@@H]2CCCN2C(=O)[C@H](Cc2ccccc2)NC(=O)[C@H](Cc2cnc[nH]2)NC1=O	20 nM	
C[C@H](O)C(=O)CCCCC[C@@H]1NC(=O)[C@H]2CCCN2C(=O)[C@H](Cc2ccccc2)NC(=O)C2(CCCCC2)NC1=O	25.4 nM	670 nM
C[C@H](O)C(=O)CCCCC[C@@H]1NC(=O)[C@@H]2CCCN2C(=O)[C@H](Cc2ccccc2)NC(=O)C(C)(C)NC1=O	52.8 nM	
